Data as given in PubChem BioAssay (NCI).
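Test compounds were applied to cells in 96-well plates for 48 hours at 5 doses. GI50 is the concentration that inhibits growth by half. TGI denotes the concentration required for complete inhibition of growth.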

What was measured:
Experiment in all cases: NCI tumour cell line growth inhibition, 48 h
NCI-H460 lung = system: NCI-H460 lung
COLO 205 colon = system: COLO 205 colon
U251 CNS = system: U251 CNS
OVCAR-4 ovarian = system: OVCAR-4 ovarian
HCT-15 colon = system: HCT-15 colon
MOLT-4 leukemia = system: MOLT-4 leukemia
OVCAR-3 ovarian = system: OVCAR-3 ovarian
UACC-62 melanoma = system: UACC-62 melanoma
LOX IMVI melanoma = system: LOX IMVI melanoma
UACC-257 melanoma = system: UACC-257 melanoma
NCI-H23 lung = system: NCI-H23 lung
RXF 393 renal = system: RXF 393 renal
MDA-MB-435 = system: MDA-MB-435
TK-10 renal = system: TK-10 renal
HCC-2998 colon = system: HCC-2998 colon
OVCAR-5 ovarian = system: OVCAR-5 ovarian
IGROV1 ovarian = system: IGROV1 ovarian
HT29 colon = system: HT29 colon
MCF7 breast = system: MCF7 breast
HOP-62 NSCLC = system: HOP-62 NSCLC
A498 renal = system: A498 renal
PC-3 prostate = system: PC-3 prostate
SF-295 CNS = system: SF-295 CNS
M14 melanoma = system: M14 melanoma
OVCAR-8 ovarian = system: OVCAR-8 ovarian
HOP-92 NSCLC = system: HOP-92 NSCLC
UO-31 renal = system: UO-31 renal
SW-620 colon = system: SW-620 colon
MDA-MB-231 breast = system: MDA-MB-231 breast
MALME-3M melanoma = system: MALME-3M melanoma
SK-MEL-2 melanoma = system: SK-MEL-2 melanoma
NCI-H226 lung = system: NCI-H226 lung
SF-539 CNS = system: SF-539 CNS
HCT-116 colon = system: HCT-116 colon
T-47D breast = system: T-47D breast
BT-549 breast = system: BT-549 breast
RPMI-8226 leukemia = system: RPMI-8226 leukemia
EKVX NSCLC = system: EKVX NSCLC
NCI-H522 lung = system: NCI-H522 lung
SK-OV-3 ovarian = system: SK-OV-3 ovarian
SNB-75 CNS = system: SNB-75 CNS
DU-145 prostate = system: DU-145 prostate
SK-MEL-5 melanoma = system: SK-MEL-5 melanoma
SNB-19 CNS = system: SNB-19 CNS
SF-268 CNS = system: SF-268 CNS
786-0 renal = system: 786-0 renal
KM12 colon = system: KM12 colon
ACHN renal = system: ACHN renal
SK-MEL-28 melanoma = system: SK-MEL-28 melanoma

COc1ccc(SC2c3cc(OC)c(OC)cc3Oc3nc(N)c(C#N)c(N)c32)cc1 (stereo not drawn)
GI50 (NCI-H460 lung): 1.66 µM | TGI (NCI-H460 lung): 4.38 µM | GI50 (COLO 205 colon): 1.29 µM | TGI (COLO 205 colon): 2.65 µM | GI50 (U251 CNS): 0.954 µM | TGI (U251 CNS): 2.18 µM | GI50 (OVCAR-4 ovarian): 1.33 µM | TGI (OVCAR-4 ovarian): 2.73 µM | GI50 (HCT-15 colon): 0.973 µM | TGI (HCT-15 colon): 2.23 µM | GI50 (MOLT-4 leukemia): 0.315 µM | TGI (MOLT-4 leukemia): 1.6 µM | GI50 (OVCAR-3 ovarian): 1.06 µM | TGI (OVCAR-3 ovarian): 2.31 µM | GI50 (UACC-62 melanoma): 0.449 µM | TGI (UACC-62 melanoma): 1.74 µM | GI50 (LOX IMVI melanoma): 0.585 µM | TGI (LOX IMVI melanoma): 1.86 µM | GI50 (UACC-257 melanoma): 1.87 µM | TGI (UACC-257 melanoma): 3.32 µM | GI50 (NCI-H23 lung): 1.45 µM | TGI (NCI-H23 lung): 3.01 µM | GI50 (RXF 393 renal): 0.74 µM | TGI (RXF 393 renal): 2.01 µM | GI50 (MDA-MB-435): 1.5 µM | TGI (MDA-MB-435): 2.92 µM | GI50 (TK-10 renal): 1.63 µM | TGI (TK-10 renal): 3.01 µM | GI50 (HCC-2998 colon): 1.72 µM | TGI (HCC-2998 colon): 3.12 µM | GI50 (OVCAR-5 ovarian): 1.75 µM | TGI (OVCAR-5 ovarian): 3.39 µM | GI50 (IGROV1 ovarian): 0.762 µM | TGI (IGROV1 ovarian): 2.37 µM | GI50 (HT29 colon): 2.16 µM | TGI (HT29 colon): 5.04 µM | GI50 (MCF7 breast): 0.454 µM | TGI (MCF7 breast): 2.1 µM | GI50 (HOP-62 NSCLC): 1.7 µM | TGI (HOP-62 NSCLC): 3.09 µM | GI50 (A498 renal): 1.42 µM | TGI (A498 renal): 2.85 µM | GI50 (PC-3 prostate): 1.16 µM | TGI (PC-3 prostate): 2.49 µM | GI50 (SF-295 CNS): 1.6 µM | TGI (SF-295 CNS): 2.96 µM | GI50 (M14 melanoma): 1.21 µM | TGI (M14 melanoma): 2.65 µM | GI50 (OVCAR-8 ovarian): 1.69 µM | TGI (OVCAR-8 ovarian): 3.18 µM | GI50 (HOP-92 NSCLC): 1.24 µM | TGI (HOP-92 NSCLC): 2.72 µM | GI50 (UO-31 renal): 1.34 µM | TGI (UO-31 renal): 2.61 µM | GI50 (SW-620 colon): 1.24 µM | TGI (SW-620 colon): 3.2 µM | GI50 (MDA-MB-231 breast): 1.43 µM | TGI (MDA-MB-231 breast): 2.81 µM | GI50 (MALME-3M melanoma): 1.46 µM | TGI (MALME-3M melanoma): 2.89 µM | GI50 (SK-MEL-2 melanoma): 1.36 µM | TGI (SK-MEL-2 melanoma): 2.8 µM | GI50 (NCI-H226 lung): 1.37 µM | TGI (NCI-H226 lung): 2.68 µM | GI50 (SF-539 CNS): 1.38 µM | TGI (SF-539 CNS): 2.68 µM | GI50 (HCT-116 colon): 0.68 µM | TGI (HCT-116 colon): 2.16 µM | GI50 (T-47D breast): 1.3 µM | TGI (T-47D breast): 3.31 µM | GI50 (BT-549 breast): 1.02 µM | TGI (BT-549 breast): 2.19 µM | GI50 (RPMI-8226 leukemia): 0.354 µM | TGI (RPMI-8226 leukemia): 1.81 µM | GI50 (EKVX NSCLC): 1.74 µM | TGI (EKVX NSCLC): 3.34 µM | GI50 (NCI-H522 lung): 1.37 µM | TGI (NCI-H522 lung): 2.77 µM | GI50 (SK-OV-3 ovarian): 1.81 µM | TGI (SK-OV-3 ovarian): 3.2 µM | GI50 (SNB-75 CNS): 1.31 µM | TGI (SNB-75 CNS): 2.62 µM | GI50 (DU-145 prostate): 1.73 µM | TGI (DU-145 prostate): 3.11 µM | GI50 (SK-MEL-5 melanoma): 1.5 µM | TGI (SK-MEL-5 melanoma): 2.82 µM | GI50 (SNB-19 CNS): 1.32 µM | TGI (SNB-19 CNS): 2.64 µM | GI50 (SF-268 CNS): 1.55 µM | TGI (SF-268 CNS): 3.07 µM | GI50 (786-0 renal): 0.493 µM | TGI (786-0 renal): 1.73 µM | GI50 (KM12 colon): 1.53 µM | TGI (KM12 colon): 3.05 µM | GI50 (ACHN renal): 1.74 µM | TGI (ACHN renal): 3.12 µM | GI50 (SK-MEL-28 melanoma): 1.47 µM | TGI (SK-MEL-28 melanoma): 2.91 µM
